Reference: patent US20190076555A1, “TUMOR TARGETING NANOAGENT FOR IMAGING AND FLUORESCENT GUIDED RESECTION OF TUMORS” (priority 2017, published 2019)
Ends that are not written are not given here.

How the values were obtained:
[1] = Absorbance spectra of free and conjugated ICG (600-900 nm); assay type: physicochemical; conditions: PBS pH7.4
Procedure: Absorbance of free and conjugated ICG was measured within a wavelength range of 600-900 nm. Stock solution of free ICG was prepared in DMSO at a concentration of 25 mM and sample was diluted in PBS, pH7.4. FIGS. 3A-3J illustrate absorbance spectra of free and conjugated ICG.

[2] = system: U87 MG glioma cells; experiment: Competition with binding of NIA to glioma cells by flow cytometry; parameters: species or system human; conditions: 5 μM NIA (100%) competed with 125 μM competitor
Procedure: FIG. 11C illustrates flow cytometry histogram for CTX (not fluorescent) competing with binding of NIA (content 5 μM CTXtot) at various concentrations of competing CTX. The following combinations were tested: PBS no ligand (solid line), NIA+125 μM CTX (dashed line), NIA+50 μM CTX (dotdashed line), NIA+5 μM (longdashed line), and NIA 5 μM (dash-twodotted line). […] The abscissa intercept indicates the maximum level of fluorescence decrease due to competition at extrapolated infinite concentrations of CTX.
The saturation curves in the insets were calculated as average fluorescence intensities as function of overall CTX, (CTXtot), concentrations. […] Each molecule of NIA contains on average 7.75 groups of CTX. […] Since the inhibitors are not fluorescence labeled, the inhibition would be indicated by the reduction of MFI if NIA is the competed ligand.

Molecule	maximum absorbance wavelength ([1]; high concentration 100 μM ICG) [nm]	maximum absorbance wavelength ([1]; lower concentration 3 μM ICG) [nm]	decrease in mean fluorescence intensity of NIA [2]
CC1(C)C(/C=C/C=C/C=C/C=C2\N(CCCCS(=O)(=O)O)c3ccc4ccccc4c3C2(C)C)=[N+](CCCCS(=O)(=O)[O-])c2ccc3ccccc3c21 [free ICG, Indocyanine Green]	695	780	
P/LLL(40%): polymalic acid with tri-leucine (40%), not fluorescence labelled competitor (Leu-Leu-Leu; not fully specified)			41-46%
